From patent US10647747B2, “Cyclosporin derivatives and uses thereof” (S&T Global Inc., priority 2010, dated 2020)
*1 amine or outer side, *2 acyl side, *3 side chain or, on linkers, in order; H or OH if unused. Where a SMILES comes first, the peptide text is derived from it. [ ]: non-standard residue; d: D form. The star is where a group is joined. MeBmt = C/C=C/C[C@@H](C)[C@@H](O)[C@H](NC)C(=O)O; X14 = CCOCOC(C)(C)C[C@@H](C(=O)[*:2])N(C)[*:1]; X15 = CSCOC(C)(C)C[C@@H](C(=O)[*:2])N(C)[*:1]; X3 = CC=CCC(C)C(O)C(C(=O)[*:2])N(C)[*:1]; X5 = CSCOC(C)(C)CC(C(=O)[*:2])N(C)[*:1]; X7 = CN(C(SCCCN1CCOCC1)C(=O)[*:2])[*:1]; X4 = CCN(CC)CCSC(C(=O)[*:2])N(C)[*:1]; NMeL = CN[CH](CC(C)C)C(=O)O; NMeV = CN[CH](C(=O)O)C(C)C; dNMeC = CN[C@H](CS)C(=O)O; Et2NCH2CH2 = CCN(CC)CC*; Abu = CC[CH](N)C(=O)O

The compounds below were run on HCV replicon in cell line ET (luc-ubi-neo/ET), Huh7 human hepatoma (assay: HCV subgenomic replicon assay, luciferase end point). Settings: Hepatitis C virus, Huh-7, Table 14, HCV replicon luciferase; read-out: Antiviral activity EC50.
Type: cell-based
For C/C=C/C[C@@H](C)[C@@H](O)[C@H]1C(=O)N[C@@H](CC)C(=O)N(C)[C@H](COCCN(CC)CC)C(=O)N(C)[C@@H](CC(C)(C)OC)C(=O)N[C@@H](C(C)C)C(=O)N(C)[C@@H](CC(C)C)C(=O)N[C@@H](C)C(=O)N[C@H](C)C(=O)N(C)[C@@H](CC(C)C)C(=O)N(C)[C@@H](CC(C)C)C(=O)N(C)[C@@H](C(C)C)C(=O)N1C, the EC50 was 20 nM. With C/C=C/C[C@@H](C)[C@@H](O)[C@H]1C(=O)N[C@@H](CC)C(=O)N(C)[C@H](CSCCN2CCN(C)CC2)C(=O)N(C)[C@@H](CC(C)(C)O)C(=O)N[C@@H](C(C)C)C(=O)N(C)[C@@H](CC(C)C)C(=O)N[C@@H](C)C(=O)N[C@H](C)C(=O)N(C)[C@@H](CC(C)C)C(=O)N(C)[C@@H](CC(C)C)C(=O)N(C)[C@@H](C(C)C)C(=O)N1C the EC50 was 30 nM. C/C=C/C[C@@H](C)[C@@H](O)[C@H]1C(=O)N[C@@H](CC)C(=O)N(C)[C@H](CSCCN(C)C(C)C)C(=O)N(C)[C@@H](CC(C)(C)O)C(=O)N[C@@H](C(C)C)C(=O)N(C)[C@@H](CC(C)C)C(=O)N[C@@H](C)C(=O)N[C@H](C)C(=O)N(C)[C@@H](CC(C)C)C(=O)N(C)[C@@H](CC(C)C)C(=O)N(C)[C@@H](C(C)C)C(=O)N1C showed an EC50 of 40 nM. C/C=C/C[C@@H](C)[C@@H](O)[C@H]1C(=O)N[C@@H](CC)C(=O)N(C)[C@H](CSCCN2CCCCC2)C(=O)N(C)[C@@H](CC(C)(C)O)C(=O)N[C@@H](C(C)C)C(=O)N(C)[C@@H](CC(C)C)C(=O)N[C@@H](C)C(=O)N[C@H](C)C(=O)N(C)[C@@H](CC(C)C)C(=O)N(C)[C@@H](CC(C)C)C(=O)N(C)[C@@H](C(C)C)C(=O)N1C was tested, and the EC50 was 40 nM. C/C=C/C[C@@H](C)[C@@H](O)[C@H]1C(=O)N[C@@H](CC)C(=O)N(C)[C@H](CSCCCN2CCOCC2)C(=O)N(C)[C@@H](CC(C)(C)O)C(=O)N[C@@H](C(C)C)C(=O)N(C)[C@@H](CC(C)C)C(=O)N[C@@H](C)C(=O)N[C@H](C)C(=O)N(C)[C@@H](CC(C)C)C(=O)N(C)[C@@H](CC(C)C)C(=O)N(C)[C@@H](C(C)C)C(=O)N1C gave an EC50 of 20 nM. C/C=C/C[C@@H](C)[C@@H](O)[C@H]1C(=O)N[C@@H](CC)C(=O)N(C)[C@H](CSCCCN(CC)CC)C(=O)N(C)[C@@H](CC(C)(C)O)C(=O)N[C@@H](C(C)C)C(=O)N(C)[C@@H](CC(C)C)C(=O)N[C@@H](C)C(=O)N[C@H](C)C(=O)N(C)[C@@H](CC(C)C)C(=O)N(C)[C@@H](CC(C)C)C(=O)N(C)[C@@H](C(C)C)C(=O)N1C showed an EC50 of 30 nM. For C/C=C/C[C@@H](C)[C@@H](O)[C@H]1C(=O)N[C@@H](CC)C(=O)N(C)[C@H](CSCCCN(C)C)C(=O)N(C)[C@@H](CC(C)(C)O)C(=O)N[C@@H](C(C)C)C(=O)N(C)[C@@H](CC(C)C)C(=O)N[C@@H](C)C(=O)N[C@H](C)C(=O)N(C)[C@@H](CC(C)C)C(=O)N(C)[C@@H](CC(C)C)C(=O)N(C)[C@@H](C(C)C)C(=O)N1C, the EC50 was 50 nM. C/C=C/C[C@@H](C)[C@@H](O)[C@H]1C(=O)N[C@@H](CC)C(=O)N(C)[C@H](CSCCN(CC)CC)C(=O)N(C)[C@@H](CC(C)(C)OCOCC)C(=O)N[C@@H](C(C)C)C(=O)N(C)[C@@H](CC(C)C)C(=O)N[C@@H](C)C(=O)N[C@H](C)C(=O)N(C)[C@@H](CC(C)C)C(=O)N(C)[C@@H](CC(C)C)C(=O)N(C)[C@@H](C(C)C)C(=O)N1C (cyclo(A[dA][NMeL][NMeL][NMeV][MeBmt][Abu][dNMeC](Et2NCH2CH2)[X14]V[NMeL])) gave an EC50 of 20 nM. C/C=C/C[C@@H](C)[C@@H](O)[C@H]1C(=O)N[C@@H](CC)C(=O)N(C)[C@H](CSCCN(CC)CC)C(=O)N(C)[C@@H](CC(C)(C)OCSC)C(=O)N[C@@H](C(C)C)C(=O)N(C)[C@@H](CC(C)C)C(=O)N[C@@H](C)C(=O)N[C@H](C)C(=O)N(C)[C@@H](CC(C)C)C(=O)N(C)[C@@H](CC(C)C)C(=O)N(C)[C@@H](C(C)C)C(=O)N1C (cyclo(A[dA][NMeL][NMeL][NMeV][MeBmt][Abu][dNMeC](Et2NCH2CH2)[X15]V[NMeL])) was tested, and the EC50 was 20 nM.

Same assay, conditions: Table 12, HCV replicon luciferase; read-out: Antiviral activity EC50
CC=CCC(C)C(O)C1C(=O)NC(CC)C(=O)N(C)C(SCCN(CC)CC)C(=O)N(C)C(CC(C)(C)OCSC)C(=O)NC(C(C)C)C(=O)N(C)C(CC(C)C)C(=O)NC(C)C(=O)NC(C)C(=O)N(C)C(CC(C)C)C(=O)N(C)C(CC(C)C)C(=O)N(C)C(C(C)C)C(=O)N1C (centres unmarked) (cyclo([X3][Abu][X4][X5]V[NMeL]AA[NMeL][NMeL][NMeV]); configuration not given here) [listing 1 of 2 here] was tested, and the EC50 was 110 nM.

Same assay, conditions: Table 13, HCV replicon luciferase; read-out: Antiviral activity EC50
CC=CCC(C)C(O)C1C(=O)NC(CC)C(=O)N(C)C(SCCN(CC)CC)C(=O)N(C)C(CC(C)(C)OCSC)C(=O)NC(C(C)C)C(=O)N(C)C(CC(C)C)C(=O)NC(C)C(=O)NC(C)C(=O)N(C)C(CC(C)C)C(=O)N(C)C(CC(C)C)C(=O)N(C)C(C(C)C)C(=O)N1C (centres unmarked) (cyclo([X3][Abu][X4][X5]V[NMeL]AA[NMeL][NMeL][NMeV]); configuration not given here) [listing 2 of 2 here] showed an EC50 of 130 nM. CC=CCC(C)C(O)C1C(=O)NC(CC)C(=O)N(C)C(SCCCN2CCOCC2)C(=O)N(C)C(CC(C)(C)OCSC)C(=O)NC(C(C)C)C(=O)N(C)C(CC(C)C)C(=O)NC(C)C(=O)NC(C)C(=O)N(C)C(CC(C)C)C(=O)N(C)C(CC(C)C)C(=O)N(C)C(C(C)C)C(=O)N1C (centres unmarked) (cyclo([X3][Abu][X7][X5]V[NMeL]AA[NMeL][NMeL][NMeV]); configuration not given here) showed an EC50 of 160 nM.

Same assay, conditions: Table 14, HCV replicon luciferase; read-out: Antiviral activity EC50
With C/C=C/C[C@@H](C)[C@@H](O)[C@H]1C(=O)N[C@@H](CC)C(=O)N(C)[C@@H](COCCN(CC)CC)C(=O)N(C)[C@@H](CC(C)(C)O)C(=O)N[C@@H](C(C)C)C(=O)N(C)[C@@H](CC(C)C)C(=O)N[C@@H](C)C(=O)N[C@H](C)C(=O)N(C)[C@@H](CC(C)C)C(=O)N(C)[C@@H](CC(C)C)C(=O)N(C)[C@@H](C(C)C)C(=O)N1C the EC50 was 50 nM.

Same assay, conditions: Table 16, HCV replicon luciferase; read-out: Antiviral activity EC50
Work on C/C=C/C[C@@H](C)[C@@H](O)[C@H]1C(=O)N[C@@H](CC)C(=O)N(C)[C@H](CSCCN2CCN(CC)CC2)C(=O)N(C)[C@@H](CC(C)(C)O)C(=O)N[C@@H](C(C)C)C(=O)N(C)[C@@H](CC(C)C)C(=O)N[C@@H](C)C(=O)N[C@H](C)C(=O)N(C)[C@@H](CC(C)C)C(=O)N(C)[C@@H](CC(C)C)C(=O)N(C)[C@@H](C(C)C)C(=O)N1C yielded an EC50 of 60 nM. CC=CCC(C)C(O)C1C(=O)NC(CC)C(=O)N(C)C(CSCCCN2CCN(CC)CC2)C(=O)N(C)C(CC(C)(C)O)C(=O)NC(C(C)C)C(=O)N(C)C(CC(C)C)C(=O)NC(C)C(=O)NC(C)C(=O)N(C)C(CC(C)C)C(=O)N(C)C(CC(C)C)C(=O)N(C)C(C(C)C)C(=O)N1C (centres unmarked) gave an EC50 of 50 nM. Work on C/C=C/C[C@@H](C)[C@@H](O)[C@H]1C(=O)N[C@@H](CC)C(=O)N(C)[C@H](CSCCCN2CCN(CC(C)C)CC2)C(=O)N(C)[C@@H](CC(C)(C)O)C(=O)N[C@@H](C(C)C)C(=O)N(C)[C@@H](CC(C)C)C(=O)N[C@@H](C)C(=O)N[C@H](C)C(=O)N(C)[C@@H](CC(C)C)C(=O)N(C)[C@@H](CC(C)C)C(=O)N(C)[C@@H](C(C)C)C(=O)N1C yielded an EC50 of 50 nM. Work on CC=CCC(C)C(O)C1C(=O)NC(CC)C(=O)N(C)C(CSCCCN2CCN(C(C)C)CC2)C(=O)N(C)C(CC(C)(C)O)C(=O)NC(C(C)C)C(=O)N(C)C(CC(C)C)C(=O)NC(C)C(=O)NC(C)C(=O)N(C)C(CC(C)C)C(=O)N(C)C(CC(C)C)C(=O)N(C)C(C(C)C)C(=O)N1C (centres unmarked) yielded an EC50 of 50 nM. For CC=CCC(C)C(O)C1C(=O)NC(CC)C(=O)N(C)C(CSCCCN2CCN(CC(C)(C)C)CC2)C(=O)N(C)C(CC(C)(C)O)C(=O)NC(C(C)C)C(=O)N(C)C(CC(C)C)C(=O)NC(C)C(=O)NC(C)C(=O)N(C)C(CC(C)C)C(=O)N(C)C(CC(C)C)C(=O)N(C)C(C(C)C)C(=O)N1C (centres unmarked), the EC50 was 60 nM. CC=CCC(C)C(O)C1C(=O)NC(CC)C(=O)N(C)C(CSCCCN2CCN(CCC)CC2)C(=O)N(C)C(CC(C)(C)O)C(=O)NC(C(C)C)C(=O)N(C)C(CC(C)C)C(=O)NC(C)C(=O)NC(C)C(=O)N(C)C(CC(C)C)C(=O)N(C)C(CC(C)C)C(=O)N(C)C(C(C)C)C(=O)N1C (centres unmarked) showed an EC50 of 50 nM. CC=CCC(C)C(O)C1C(=O)NC(CC)C(=O)N(C)C(CSCCCNCC(C)(C)C)C(=O)N(C)C(CC(C)(C)O)C(=O)NC(C(C)C)C(=O)N(C)C(CC(C)C)C(=O)NC(C)C(=O)NC(C)C(=O)N(C)C(CC(C)C)C(=O)N(C)C(CC(C)C)C(=O)N(C)C(C(C)C)C(=O)N1C (centres unmarked) showed an EC50 of 50 nM. Work on CC=CCC(C)C(O)C1C(=O)NC(CC)C(=O)N(C)C(CSCCCN2CCSCC2)C(=O)N(C)C(CC(C)(C)O)C(=O)NC(C(C)C)C(=O)N(C)C(CC(C)C)C(=O)NC(C)C(=O)NC(C)C(=O)N(C)C(CC(C)C)C(=O)N(C)C(CC(C)C)C(=O)N(C)C(C(C)C)C(=O)N1C (centres unmarked) yielded an EC50 of 50 nM. For C/C=C/C[C@@H](C)[C@@H](O)[C@H]1C(=O)N[C@@H](CC)C(=O)N(C)[C@H](CSCCCN(CC(C)C)CC(C)C)C(=O)N(C)[C@@H](CC(C)(C)O)C(=O)N[C@@H](C(C)C)C(=O)N(C)[C@@H](CC(C)C)C(=O)N[C@@H](C)C(=O)N[C@H](C)C(=O)N(C)[C@@H](CC(C)C)C(=O)N(C)[C@@H](CC(C)C)C(=O)N(C)[C@@H](C(C)C)C(=O)N1C, the EC50 was 40 nM. CC=CCC(C)C(O)C1C(=O)NC(CC)C(=O)N(C)C(CSCCCCOCCN(CC)CC)C(=O)N(C)C(CC(C)(C)O)C(=O)NC(C(C)C)C(=O)N(C)C(CC(C)C)C(=O)NC(C)C(=O)NC(C)C(=O)N(C)C(CC(C)C)C(=O)N(C)C(CC(C)C)C(=O)N(C)C(C(C)C)C(=O)N1C (centres unmarked) gave an EC50 of 50 nM. CC=CCC(C)C(O)C1C(=O)NC(CC)C(=O)N(C)C(CSCCCCNCC(C)(C)C)C(=O)N(C)C(CC(C)(C)O)C(=O)NC(C(C)C)C(=O)N(C)C(CC(C)C)C(=O)NC(C)C(=O)NC(C)C(=O)N(C)C(CC(C)C)C(=O)N(C)C(CC(C)C)C(=O)N(C)C(C(C)C)C(=O)N1C (centres unmarked) was tested, and the EC50 was 40 nM. Work on CC=CCC(C)C(O)C1C(=O)NC(CC)C(=O)N(C)C(CSCCCCN(CC)CC)C(=O)N(C)C(CC(C)(C)O)C(=O)NC(C(C)C)C(=O)N(C)C(CC(C)C)C(=O)NC(C)C(=O)NC(C)C(=O)N(C)C(CC(C)C)C(=O)N(C)C(CC(C)C)C(=O)N(C)C(C(C)C)C(=O)N1C (centres unmarked) yielded an EC50 of 70 nM. With CC=CCC(C)C(O)C1C(=O)NC(CC)C(=O)N(C)C(CSCCCCN(CC(C)C)CC(C)C)C(=O)N(C)C(CC(C)(C)O)C(=O)NC(C(C)C)C(=O)N(C)C(CC(C)C)C(=O)NC(C)C(=O)NC(C)C(=O)N(C)C(CC(C)C)C(=O)N(C)C(CC(C)C)C(=O)N(C)C(C(C)C)C(=O)N1C (centres unmarked) the EC50 was 40 nM.
